Measurements: article PMC6397271 (Scientific Reports, 2019)
In brackets after ≈: the same amount, converted by molar mass. Read-outs that look alike come from different tables or passages of the source.

Legend:
S. aureus MRSA 12673 = test: microbe, parasite or virus in culture; format: cell-based, Staphylococcus aureus; conditions: for MIC: raw MIC
From the text: (§1) Three bacterial strains of MRSA (N315, 12673, 6347) and two of Enterococcus spp. (E. faecium, E. faecalis) were used. With respect to MRSA, N315 represented a reference Van-susceptible strain (GenBank GCA_00000645.1) isolated from a patient while 12673 (Van-intermediately susceptible) and 6347 (a h-VISA which appears at frequency of <10^−5 to 10^−6 is composed of two subpopulations of bacteria: one susceptible and one intermediately resistant)[38] were clinical strains obtained from patients of The Clinical University Centre of Gdańsk (UCK). […] The clinical strain isolates originated from the collection of the Department of Pharmaceutical Technology and Biochemistry, Faculty of Chemistry, Gdańsk University of Technology.
(§2) The strains were grown in Mueller-Hinton broth (MH cation-adjusted, Becton Dickinson) or Brain Heart Infusion broth (BHI, Becton Dickinson), respectively. The cultivation was carried out in an aerobic atmosphere at 37 °C for 24 hours and, afterwards, the bacterial cultures were diluted in geometric progression with a proper broth. Next, 100 µl of each dilution was inoculated in an agar plate and incubated at 37 °C for 24 h. The next procedures included determination of Colony Forming Units (CFU)/ml and minimal inhibitory concentration (MIC) of the compounds in question. The latter procedure was carried out according to the microbroth dilution technique using 96-well plates. The MICs were evaluated by using the metabolic assay based on the resazurin dye. The assay was performed in triplicates.

S. aureus MRSA N315 = test: microbe, parasite or virus in culture; format: cell-based, Staphylococcus aureus
From the text: as §1, §2

[1] = test system: S. aureus MRSA hetero-VISA 6347; test: microbe, parasite or virus in culture; format: cell-based, Staphylococcus aureus; conditions: for MIC: raw MIC
From the text: as §1, §2

[2] = test system: Enterococcus faecalis 3937158; test: microbe, parasite or virus in culture; format: cell-based; conditions: for MIC: raw MIC
From the text: as §1, §2

[3] = test system: Enterococcus faecium 3934825; test: microbe, parasite or virus in culture; format: cell-based; conditions: for MIC: raw MIC
From the text: as §1, §2

sheep erythrocytes = test: Erythrocyte lysis assay; format: cell-based; conditions: 37 °C, 1 hour, A450 nm; for cell lysis (haemolysis): 10^8 cells/ml, vs 4% Triton X-100, triplicates
Description: The protocol of the lysis assay is presented below.
To obtain sheep erythrocytes, 5 ml of fresh blood was centrifuged at 1000 × g for 10 min and washed 3 times with 0.9% NaCl. Cell suspension (final concentration of 10^8 cells/ml) in a volume of 75 µl was added to each well of the 96-well microtiter plate and incubated at 37 °C in the presence of the tested compounds. The range of their concentrations was 100–0.049 µM (diluted in saline solution), which included that of MIC values for the tested strains of the bacteria.
Plates with samples were incubated at 37 °C for 1 hour and then centrifuged at 1000 × g for 10 min to separate the unlysed erythrocytes. Next, the supernatant was transferred to a new plate. The absorbance (A) was measured spectrophotometrically at 450 nm of wavelength. The experiments were performed in triplicates.
The haemolysis percentage was calculated according to the equation presented by Sharma et al.[43]. The percentage of haemolysis = [(A450nm of test compound treated sample-A450nm of buffer treated sample)/(A450nm of 4%TritonX-100 treated samples-A450nm of buffer treated sample)] × 100.

[4] = first block, test a, repetition 1, read-out: MIC1a
[5] = first block, test a, repetition 2, read-out: MIC2a
[6] = first block, test a, repetition 3, read-out: MIC3a
[7] = first block, test b, repetition 1, read-out: MIC1b
[8] = first block, test b, repetition 2, read-out: MIC2b
[9] = first block, test b, repetition 3, read-out: MIC3b
[10] = test a, repetition 1, read-out: MIC1a
[11] = test a, repetition 2, read-out: MIC2a
[12] = test a, repetition 3, read-out: MIC3a
[13] = test b, repetition 1, read-out: MIC1b
[14] = test b, repetition 2, read-out: MIC2b
[15] = test b, repetition 3, read-out: MIC3b
[16] = same test as μM value, mean ± SD

SMILES: CC[C@H](C)[C@H](NC(=O)[C@H](CCCCN)NC(=O)[C@H](CCCCN)NC(=O)[C@H](C)NC(=O)[C@H](CC(C)C)NC(=O)[C@H](C)NC(=O)[C@H](C)NC(=O)[C@H](CC(C)C)NC(=O)[C@H](C)NC(=O)[C@H](CCCCN)NC(=O)[C@H](CC(C)C)NC(=O)[C@H](CC(N)=O)NC(=O)[C@@H](NC(=O)[C@H](CCCCN)NC(=O)CNC(=O)[C@H](CC(C)C)NC(=O)[C@H](CC(C)C)NC(=O)[C@H](Cc1ccc(O)cc1)NC(=O)CNC(=O)[C@H](C)NC(=O)c1cn(CCOCCOCCOCCNC(=O)[C@H]2NC(=O)[C@H]3NC(=O)[C@H](NC(=O)[C@@H]4NC(=O)[C@H](CC(N)=O)NC(=O)[C@H](NC(=O)[C@@H](CC(C)C)NC)[C@H](O)c5ccc(c(Cl)c5)Oc5cc4cc(c5O[C@@H]4O[C@H](CO)[C@@H](O)[C@H](O)[C@H]4O[C@H]4C[C@](C)(N)[C@H](O)[C@H](C)O4)Oc4ccc(cc4Cl)[C@H]3O)c3ccc(O)c(c3)-c3c(O)cc(O)cc32)nn1)[C@@H](C)CC)C(=O)N[C@@H](CC(C)C)C(N)=O [conjugate I, Van-PEG3-TP10]
- MIC (S. aureus MRSA 12673; [4]): 1.56 µM (≈ 6.06 µg/mL)
- MIC (S. aureus MRSA 12673; [5]): 3.12 µM (≈ 12.1 µg/mL)
- MIC (S. aureus MRSA 12673; [6]): 1.56 µM (≈ 6.06 µg/mL)
- MIC (S. aureus MRSA 12673; [7]): 1.56 µM (≈ 6.06 µg/mL)
- MIC (S. aureus MRSA 12673; [8]): 3.12 µM (≈ 12.1 µg/mL)
- MIC (S. aureus MRSA 12673; [9]): 3.12 µM (≈ 12.1 µg/mL)
- MIC (S. aureus MRSA 12673; [10]): 6.06 µM (≈ 23.5 µg/mL)
- MIC (S. aureus MRSA 12673; [11]): 6.06 µM (≈ 23.5 µg/mL)
- MIC (S. aureus MRSA 12673; [12]): 6.06 µM (≈ 23.5 µg/mL)
- MIC (S. aureus MRSA 12673; [13]): 6.06 µM (≈ 23.5 µg/mL)
- MIC (S. aureus MRSA 12673; [14]): 12.12 µM (≈ 47.1 µg/mL)
- MIC (S. aureus MRSA 12673; [15]): 12.12 µM (≈ 47.1 µg/mL)
- MIC in (μg/ml) (S. aureus MRSA 12673; [16]): 6.1 ± 3.1 µg/mL (≈ 1.57 µM)
- MIC (S. aureus MRSA N315; microbroth dilution, 96-well, resazurin, 37 °C, 24 h, mean ± SD, at least three independent experiments in triplicates): 1.6 ± 0.9 µM (≈ 6.21 µg/mL)
- MIC (S. aureus MRSA N315; microbroth dilution, 96-well, resazurin, 37 °C, 24 h, mean ± SD, at least three independent experiments in triplicates, read-out: MIC): 1.6 µM (≈ 6.21 µg/mL)
- MIC (S. aureus MRSA N315; raw MIC, first block, test a, repetition 1, read-out: MIC1a): 1.56 µM (≈ 6.06 µg/mL)
- MIC (S. aureus MRSA N315; raw MIC, first block, test a, repetition 2, read-out: MIC2a): 3.12 µM (≈ 12.1 µg/mL)
- MIC (S. aureus MRSA N315; raw MIC, first block, test a, repetition 3, read-out: MIC3a): 1.56 µM (≈ 6.06 µg/mL)
- MIC (S. aureus MRSA N315; raw MIC, first block, test b, repetition 1, read-out: MIC1b): 3.125 µM (≈ 12.1 µg/mL)
- MIC (S. aureus MRSA N315; raw MIC, first block, test b, repetition 2, read-out: MIC2b): 1.56 µM (≈ 6.06 µg/mL)
- MIC (S. aureus MRSA N315; raw MIC, first block, test b, repetition 3, read-out: MIC3b): 1.56 µM (≈ 6.06 µg/mL)
- MIC (S. aureus MRSA N315; raw MIC, test a, repetition 1, read-out: MIC1a): 6.06 µM (≈ 23.5 µg/mL)
- MIC (S. aureus MRSA N315; raw MIC, test a, repetition 2, read-out: MIC2a): 12.12 µM (≈ 47.1 µg/mL)
- MIC (S. aureus MRSA N315; raw MIC, test a, repetition 3, read-out: MIC3a): 6.06 µM (≈ 23.5 µg/mL)
- MIC (S. aureus MRSA N315; raw MIC, test b, repetition 1, read-out: MIC1b): 6.06 µM (≈ 23.5 µg/mL)
- MIC (S. aureus MRSA N315; raw MIC, test b, repetition 2, read-out: MIC2b): 6.06 µM (≈ 23.5 µg/mL)
- MIC (S. aureus MRSA N315; raw MIC, test b, repetition 3, read-out: MIC3b): 6.06 µM (≈ 23.5 µg/mL)
- MIC in (μg/ml) (S. aureus MRSA N315; [16]): 6.1 ± 2.5 µg/mL (≈ 1.57 µM)
- MIC [1, 4]: 1.56 µM (≈ 6.06 µg/mL)
- MIC [1, 5]: 1.56 µM (≈ 6.06 µg/mL)
- MIC [1, 6]: 0.78 µM (≈ 3.03 µg/mL)
- MIC [1, 7]: 1.56 µM (≈ 6.06 µg/mL)
- MIC [1, 8]: 1.56 µM (≈ 6.06 µg/mL)
- MIC [1, 9]: 1.56 µM (≈ 6.06 µg/mL)
- MIC [1, 10]: 6.06 µM (≈ 23.5 µg/mL)
- MIC [1, 11]: 6.06 µM (≈ 23.5 µg/mL)
- MIC [1, 12]: 3.03 µM (≈ 11.8 µg/mL)
- MIC [1, 13]: 6.06 µM (≈ 23.5 µg/mL)
- MIC [1, 14]: 6.06 µM (≈ 23.5 µg/mL)
- MIC [1, 15]: 6.06 µM (≈ 23.5 µg/mL)
- MIC in (μg/ml) [1, 16]: 6.1 ± 1.2 µg/mL (≈ 1.57 µM)
- MIC [2, 4]: 6.25 µM (≈ 24.3 µg/mL)
- MIC [2, 5]: 3.1 µM (≈ 12 µg/mL)
- MIC [2, 6]: 6.25 µM (≈ 24.3 µg/mL)
- MIC [2, 7]: 6.25 µM (≈ 24.3 µg/mL)
- MIC [2, 8]: 6.25 µM (≈ 24.3 µg/mL)
- MIC [2, 9]: 3.1 µM (≈ 12 µg/mL)
- MIC [2, 10]: 24.27 µM (≈ 94.2 µg/mL)
- MIC [2, 11]: 12.14 µM (≈ 47.1 µg/mL)
- MIC [2, 12]: 24.27 µM (≈ 94.2 µg/mL)
- MIC [2, 13]: 24.27 µM (≈ 94.2 µg/mL)
- MIC [2, 14]: 24.27 µM (≈ 94.2 µg/mL)
- MIC [2, 15]: 12.14 µM (≈ 47.1 µg/mL)
- MIC in (μg/ml) [2, 16]: 24.3 ± 6.3 µg/mL (≈ 6.26 µM)
- MIC [3, 4]: 50 µM (≈ 194 µg/mL)
- MIC [3, 5]: 50 µM (≈ 194 µg/mL)
- MIC [3, 6]: 50 µM (≈ 194 µg/mL)
- MIC [3, 7]: 25 µM (≈ 97.1 µg/mL)
- MIC [3, 8]: 50 µM (≈ 194 µg/mL)
- MIC [3, 9]: 50 µM (≈ 194 µg/mL)
- MIC [3, 10]: 194.2 µM (≈ 754 µg/mL)
- MIC [3, 11]: 194.2 µM (≈ 754 µg/mL)
- MIC [3, 12]: 194.2 µM (≈ 754 µg/mL)
- MIC [3, 13]: 97.1 µM (≈ 377 µg/mL)
- MIC [3, 14]: 194.2 µM (≈ 754 µg/mL)
- MIC [3, 15]: 194.2 µM (≈ 754 µg/mL)
- MIC in (μg/ml) [3, 16]: 194.2 ± 39.6 µg/mL (≈ 50 µM)
- cell lysis (haemolysis) (sheep erythrocytes; 12.5 µM): 15%
- cell lysis (haemolysis) (sheep erythrocytes; 100 µM): 93%
- hemolysis at MIC concentrations (sheep erythrocytes; 6.25–0.78 μM): lack of hemolysis
